Test results: patent publication US5750405A, “Method for the detection for protein” (priority 1996, dated 1998)

Assays:
[1] = system: Urinary proteins; experiment: DIDNTB reagent strip protein response, Example I, other urinary proteins; assay type: binding; details: additive 6 mM; vs control formula lacking additive; negative = loss of protein response
Source text: (§1) The DIDNTB protein reagent was made from two saturations of Alhstrom 204 filter paper in which the first saturation was made with an aqueous ethanol mix containing tartaric acid as buffer and methyl red as background dye. The pH was adjusted to 2.1. The second saturation was with a toluene/tetrahydrofuran mix containing the DIDNTB indicator dye and Lutanol M40 (a polyvinylmethylether) as a color enhancer polymer.
(§2) The mix solutions were used to saturate the filter paper and the paper was dried at 105° C. for 7 minutes after each saturation. The resultant dry reagents were processed into reagent strips which were tested on a Clinitek-200+ reflectance spectrophotometer from Bayer Diagnostics after dipping into urine containing 0 or 30 mg/dL human serum albumin or 40 mg/dL of another urinary protein. The particulars of each dip solution are set out in Table 3.
Prior to the addition of HSA, the urine sample was filtered through an ultrafiltration membrane having a 10 KDa (kilodalton) molecular weight cut-off to remove naturally occurring proteins. The total protein in the urine sample was determined using an immunological HSA assay and the Coomassie Brilliant Blue (CBB) method described by Perini et al as cited above to screen over 175 clinical samples to provide specimens lacking albumin but containing other urine protein. […] These urines were pooled and diluted with negative urine to 40 mg/dL by the CBB method and less than 1.2 mg/dL by immunological HSA assay. The reagent response was measured on the […]-200+ instrument as the result of 1000×% Reflectance @ 610 nm/% reflectance @ 690 nm. The difference between negative and protein containing urines was taken as the protein response. The data generated by this experiment are set out in Table 1 in which the protein response of control formula lacking polymer or substituted alkane additive is compared to the formulas containing polymer or alkane to determine the % change in response. Negative numbers indicate greater loss of protein response. […]

[2] = molecular target: human serum albumin (HSA) (Homo sapiens, UniProt P02768); experiment: DIDNTB reagent strip protein response, Example I, HSA; details: for protein response: Example I, 6 mM of substituted alkane; for % change in response, HSA 30 mg/dL: additive 6 mM, vs control formula lacking additive, negative = loss of protein response
Source text: as §1, §2
Prior to the addition of HSA, the urine sample was filtered through an ultrafiltration membrane having a 10 KDa (kilodalton) molecular weight cut-off to remove naturally occurring proteins. The total protein in the urine sample was determined using an immunological HSA assay and the Coomassie Brilliant Blue (CBB) method described by Perini et al as cited above to screen over 175 clinical samples to provide specimens lacking albumin but containing other urine protein. […] These urines were pooled and diluted with negative urine to 40 mg/dL by the CBB method and less than 1.2 mg/dL by immunological HSA assay. The reagent response was measured on the […]-200+ instrument as the result of 1000×% Reflectance @ 610 nm/% reflectance @ 690 nm. The difference between negative and protein containing urines was taken as the protein response. The data generated by this experiment are set out in Table 1 in which the protein response of control formula lacking polymer or substituted alkane additive is compared to the formulas containing polymer or alkane to determine the % change in response. Negative numbers indicate greater loss of protein response.
The HSA response in the presence of these additives was compared to the response for other urinary proteins such as Tamm Horsefall glycoprotein, Bence-Jones protein, α-1-microglobin, hemoglobin and various low molecular weight protein fragments. The additives were used at a 0.1% (w/w) concentration to allow a measurable HSA response in all cases. The 0.1% concentration amounts to […] concentration of additive and is in excess of the 4.4 μM concentration of the proteins tested.

[3] = system: albumin; details: cited from earlier work
[4] = system: albumin; details: Coomassie Brilliant Blue; cited from earlier work

Chain of human serum albumin (HSA) (P02768 25-609): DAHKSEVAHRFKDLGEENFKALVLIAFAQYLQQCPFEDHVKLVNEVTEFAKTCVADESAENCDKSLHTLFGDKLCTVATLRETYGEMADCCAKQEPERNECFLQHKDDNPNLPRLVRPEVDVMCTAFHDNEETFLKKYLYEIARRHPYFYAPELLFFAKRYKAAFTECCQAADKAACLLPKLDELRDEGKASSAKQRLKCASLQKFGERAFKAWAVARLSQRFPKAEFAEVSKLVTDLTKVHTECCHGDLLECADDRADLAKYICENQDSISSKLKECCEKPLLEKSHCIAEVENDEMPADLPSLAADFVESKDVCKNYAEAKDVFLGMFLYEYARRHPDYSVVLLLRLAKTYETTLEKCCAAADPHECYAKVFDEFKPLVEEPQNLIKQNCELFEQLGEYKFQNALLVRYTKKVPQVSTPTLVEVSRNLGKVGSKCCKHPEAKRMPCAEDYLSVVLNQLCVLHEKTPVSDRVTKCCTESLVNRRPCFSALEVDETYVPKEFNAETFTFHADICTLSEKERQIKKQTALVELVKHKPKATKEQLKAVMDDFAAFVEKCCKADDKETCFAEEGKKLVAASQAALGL

CCCCCCCCCC(=O)O [Decanoic acid]
% change in response, Urinary proteins 40 mg/dL [1]: 2%
protein response [2]: did not affect the protein response
% change in response, HSA 30 mg/dL [2]: 7%

CCCCCCCCCCO [Decanol]
% change in response, Urinary proteins 40 mg/dL [1]: 8%
protein response [2]: did not affect the protein response
% change in response, HSA 30 mg/dL [2]: 3%

CCCCCCCCCCCCCCCC(=O)O [Hexadecanoic acid]
% change in response, Urinary proteins 40 mg/dL [1]: 1%

CCCCCCCCCCCCCCCC(=O)O [Palmitate, palmitic acid]
effect on the binding of phenol red to albumin [3]: modest inhibitory effects

CCCCCCCCCCCCOS(=O)(=O)[O-].[Na+] [sodium dodecyl sulfate]
specificity of the test for albumin [4]: decreased the specificity
